Measurements as given in article PMC8950706, “Influence of Substitutions in the Binding Motif of Proline-Rich Antimicrobial Peptide ARV-1502 on 70S Ribosome Binding and Antimicrobial Activity” (International Journal of Molecular Sciences, 2022).
In brackets after ≈: the same amount, converted by molar mass. Marks after values point to notes of the source that are not given here. Square brackets hold non-standard residues; d marks the D form. Peptide text beside a SMILES is read from it. Ac6c = NC1(C(=O)O)CCCCC1

Key:
[1] = test system: E. coli 70S ribosome; test: Competitive FP binding screening assay with Cf-ARV-1502 (relative FP); set-up: species or system E. coli BW25113; conditions: for Ribosome Binding (%): competitive ribosome binding against Cf-ARV-1502 (relative FP; values match 1.2 µmol/L peptide), low value = strong competition
Procedure: E. coli 70S ribosomes were prepared using a previously described protocol that was slightly modified. Briefly, E. coli BW25113 was cultivated in Luria-Bertani (LB) medium and cells were harvested after reaching an optical density of ~4 at 600 nm by centrifugation (5000× g, 15 min, 4 °C, Rotor JLA 8.100, Avanti J-20 XP, Beckmann Coulter, Krefeld, Germany). The cell pellets were frozen and stored at −80 °C. Cells were resuspended in ribosome buffer (2 mL/g cells; 20 mmol/L HEPES-KOH, 6 mmol/L MgCl2, 30 mmol/L NH4Cl, 4 mmol/L 2-mercaptoethanol, pH 7.6). Lysozyme (0.25 g/L cell suspension) was added, and the mixture was incubated on ice for 30 min. Cells were disrupted using the bead mill homogenizer FastPrep-24™ 5G (40 s, 4 m/s, 6 cycles, MP Biomedicals Germany GmbH, Eschwege, Germany) and zirconia/silica beads (0.1 mm diameter). The lysate was centrifuged (1500× g, 5 min, 4 °C, Rotor S4180, Allegra 21R, Beckmann Coulter) and the supernatant was incubated with DNase (5 U/mL) on ice for 60 min. The cell debris was removed by two centrifugation steps (16,000× g, 30 min, 4 °C followed by 32,000× g, 60 min, 4 °C, Rotor JA 30.50 Ti, Avanti J-30I, Beckmann Coulter). The ribosome was pelleted by ultracentrifugation (165,000× g, 17 h, 4 °C, Rotor 70 Ti, Optima LE-80K, Beckmann Coulter), resuspended in ribosome buffer (0.1 mL/g pellet), and stored at −80 °C. The ribosome concentration was determined by recording the absorbance of RNA at 260 nm (NanoPhotometer NP80, Implen GmbH, München, Germany) assuming that 1 AU corresponds to a ribosome concentration of 28 nmol/L. The molecular weight of the E. coli 70S ribosome was assumed to be 2.3 MDa.
E. coli 70S ribosomes and Cf-ARV-1502 were incubated with four different concentrations of unlabeled peptides chosen based on the IC50 curves of reference peptide ARV-1502. Each peptide was diluted in ribosome buffer to obtain a concentration of 4.8 µmol/L and transferred to a 384-well-plate. Peptides were then twofold serially diluted in four steps from 4.8 to 0.6 µmol/L (20 µL). The ribosome extract was diluted in ribosome buffer to reach a concentration of 2 µmol/L and 10 µL were added to each well to obtain a final ribosome concentration of 0.5 µmol/L. Plates were centrifuged (2 min, 500× g, Rotor S2096, Allegra^TM 21R, Beckmann Coulter) and incubated at 28 °C for 90 min. Cf-labeled ARV-1502 was added (10 µL; final concentration of 20 nmol/L) and the plates were again centrifuged and incubated (28 °C, 90 min). After incubation, fluorescence polarization was recorded on a […]^TM microplate reader (λex = 485 nm, λem = 535 nm).
On each plate 12 minimum (30 µL ribosome buffer and 10 µL Cf-ARV-1502) and 12 maximum (20 µL ribosome buffer, 10 µL ribosome solution and 10 µL Cf-ARV-1502) control samples were added. Fluorescence polarization of screening samples was normalized to the fluorescence polarization of these control samples. All screening samples were measured in triplicates and the whole experiment was repeated once on another day.

[2] = test system: E. coli BW25113; test: MIC, liquid broth micro dilution, wild type; format: cell-based, Escherichia coli; conditions: for MIC (µg/mL), Table 3: BW25113, 4 h; for Minimal Inhibitory Concentration, 25% MHB2, wt / Minimal Inhibitory Concentration, 33% TSB, wt: BW25113, 20 h
Procedure: (§1) MIC values were determined using a liquid broth micro dilution assay in sterile 96-well plates (polystyrene F-bottom, Greiner Bio-One GmbH) and a total volume of 100 μL per well. Aqueous peptide solutions (10 g/L) were serially twofold diluted in 25% Mueller-Hinton broth 2 (25% MBH2) or 33% tryptic soy broth (33% TSB) starting at a peptide concentration of 128 mg/L (50 μL/well). Overnight cultures of bacteria grown in 25% MHB2 (or 33% TSB) were diluted 30-fold in 25% MHB2 (or 33% TSB). After an incubation period of 4 h (37 °C, 200 rpm), cells were diluted to 1.5 × 10^7 cfu/mL, based on a McFarland test, and 50 μL were added to each well (final concentration of 7.5 × 10^6 […]). The plates were incubated (37 °C, 20 h) and the optical density was recorded at 595 nm using a microplate reader ([…]^TM, Beckmann Coulter). The MIC was defined as the lowest peptide concentration preventing visible bacterial growth.

[3] = test system: E. coli BW25113 ∆sbmA ∆mdtM; format: cell-based, Escherichia coli; conditions: for Effect of the additional mdtM knockout on antibacterial activity: ∆sbmA ∆mdtM compared with ∆sbmA
Procedure: as §1

[4] = test system: E. coli BW25113 ∆sbmA; format: cell-based, Escherichia coli
Procedure: as §1

[5] = test system: E. coli 70S ribosome; test: Cell-free GFP expression assay (in vitro translation); format: biochemical; conditions: for In Vitro Translation (%): GFP expression remaining relative to control, concentration not given (higher concentration 50 µmol/L); for Reduction of GFP expression, 50 µmol/L peptide: cell-free expression, peptide-to-ribosome ratio of 25, GFP fluorescence, 37 °C
Description: Possible effects of ARV-1502 and its substituted analogs on the in vitro translation of the green fluorescent protein (GFP) were probed using the NEB PureExpress Delta RF123 Kit (New England Biolabs, Ipswich, MA, USA). The sfGFP DNA template was amplified from pY71sfGFP plasmid by PCR introducing an UAA stop codon. Release factor 1 (RF1) was 50fold diluted in Pure System Buffer (PSB) containing magnesium acetate (1 mol/L), monopotassium phosphate (0.5 mol/L, pH 7.3), potassium glutamate (1 mol/L), NH4Cl (1 mol/L), calcium chloride (0.5 mol/L), spermidine (1 mol/L), putrescine (0.1 mol/L), and DTT (0.1 mol/L). Each reaction used 35 ng of sfGFP template. Peptides were added at a final concentration of 5 µmol/L and 50 µmol/L. The reaction was started by adding Kit solutions A (2 µL) and B (1.5 µL), diluted RF1 (0.5 µL), sfGFP template (0.25 µL or water as negative control), PSB (0.25 µL), and peptide (0.5 µL or water), mixed, transferred into a black 384-well plate (flat bottom, Greiner Bio-One GmbH), and incubated (37 °C, 2 h). The fluorescence was recorded every 10 min (λexc = 485 nm, λem = 535 nm) in a microplate reader (Gemini EM, Molecular Devices LLC, San Jose, CA, USA).

[6] = 25% MHB2, 37 °C, 20 h, at least duplicates on two days, * once on two days, ** duplicate on one day
[7] = 33% TSB, 37 °C, 20 h, at least duplicates on two days, * once on two days, ** duplicate on one day

Row | SMILES | Inhibition of Cf-ARV-1502 binding to the 70S ribosome (in words) ([1]; Figure 3: peptide concentration 1.2 µmol/L) | Ribosome Binding (%) [1] | MIC (µg/mL), Table 3 [2] | Minimal Inhibitory Concentration, 25% MHB2, wt [2] | Minimal Inhibitory Concentration, 33% TSB, wt [2] | MIC / activity against E. coli ([2]; medium not given) | Minimal Inhibitory Concentration, 25% MHB2, ∆sbmA ∆mdtM [3, 6] | Minimal Inhibitory Concentration, 33% TSB, ∆sbmA ∆mdtM [3, 7] | Minimal Inhibitory Concentration, 25% MHB2, ∆sbmA [4, 6] | Minimal Inhibitory Concentration, 33% TSB, ∆sbmA [4, 7] | In Vitro Translation (%) [5] | Effect of the additional mdtM knockout on antibacterial activity [3] | Effect of deletion of SbmA on antibacterial activity ([4]; ∆sbmA compared with wild-type strain) | Reduction of GFP expression, 50 µmol/L peptide [5]
1 | CC(C)C[C@H](NC(=O)[C@H](Cc1ccc(O)cc1)NC(=O)[C@@H]1CCCN1C(=O)[C@H](CCCNC(=N)N)NC(=O)[C@@H]1CCCN1C(=O)[C@H](CC(=O)O)NC(=O)[C@H](CO)NC(=O)[C@@H]1CCCN1C(=O)[C@H](CCCNC(=N)N)NC(=O)C1(N)CCCCC1)C(=O)N1CCC[C@H]1C(=O)N[C@@H](CCCNC(=N)N)C(=O)N1CCC[C@H]1C(=O)N[C@@H](CCCNC(=N)N)C(=O)N1CCC[C@H]1C(=O)N1CCC[C@H]1C(=O)N[C@@H](CCCNC(=N)N)C(=O)N1CCC[C@H]1C(=O)N[C@H](C(=O)N[C@@H](CCCNC(=N)N)C(N)=O)C(C)C [Peptide 50] (H-[Ac6c]RPSDPRPYLPRPRPPRPVR-NH2) | inhibited Cf-ARV-1502 | 67.9 ± 4.8% | 128 µg/mL (≈ 52.6 µM) | 128 µg/mL | 64 µg/mL | low activity against E. coli | >128 µg/mL | >128 µg/mL | >128 µg/mL | >128 µg/mL | 113.7 ± 9.1% | – | – | –
2 | CC(C)C[C@H](NC(=O)[C@H](Cc1ccc(O)cc1)NC(=O)[C@@H]1CCCN1C(=O)[C@H](CCCNC(=N)N)NC(=O)[C@@H]1CCCN1C(=O)[C@H](Cc1ccccc1)NC(=O)[C@H](Cc1ccccc1)NC(=O)[C@@H]1CCCN1C(=O)[C@H](CCCNC(=N)N)NC(=O)C1(N)CCCCC1)C(=O)N1CCC[C@H]1C(=O)N[C@@H](CC(C)C)C(=O)N1CCC[C@H]1C(=O)N[C@@H](CCCNC(=N)N)C(=O)N1CCC[C@H]1C(=O)N1CCC[C@H]1C(=O)N[C@@H](CCCNC(=N)N)C(=O)N1CCC[C@H]1C(=O)N[C@H](C(=O)N[C@@H](CCCNC(=N)N)C(N)=O)C(C)C [Peptide 102] (H-[Ac6c]RPFFPRPYLPLPRPPRPVR-NH2; N-terminus and C-terminus assumed) | – | 76.5 ± 5.6% | 32 to 64 µg/mL | 32 to 64 µg/mL | 64 µg/mL | – | – | – | – | – | 78.9 ± 3.5% | no effect | no effect | ~ 25%
3 | CC(C)[C@H](NC(=O)[C@@H]1CCCN1C(=O)[C@H](CCCNC(=N)N)NC(=O)[C@@H]1CCCN1C(=O)[C@@H]1CCCN1C(=O)[C@H](CCCNC(=N)N)NC(=O)[C@@H]1CCCN1C(=O)[C@H](CCCNC(=N)N)NC(=O)[C@@H]1CCCN1C(=O)[C@H](Cc1ccccc1)NC(=O)[C@H](Cc1ccc(O)cc1)NC(=O)[C@@H]1CCCN1C(=O)[C@H](CCCNC(=N)N)NC(=O)[C@@H]1CCCN1C(=O)[C@H](Cc1ccccc1)NC(=O)[C@H](Cc1ccccc1)NC(=O)[C@@H]1CCCN1C(=O)[C@H](CCCNC(=N)N)NC(=O)C1(N)CCCCC1)C(=O)N[C@@H](CCCNC(=N)N)C(N)=O [Peptide 96] (H-[Ac6c]RPFFPRPYFPRPRPPRPVR-NH2; N-terminus and C-terminus assumed) | – | 62.9 ± 4.8% | 16 µg/mL (≈ 6.25 µM) | 16 µg/mL | 32 * µg/mL | – | – | – | – | – | 77.2 ± 1.9% | no effect | – | ~ 25%
